From paper PMC4878443 (Journal of medicinal chemistry, 2015)

target: human LSD1 (Homo sapiens, UniProt O60341); test: LSD1 inhibition, mass spectrometry; type: biochemical; details: not given

Compound | LSD1 inhibition in words
c1ccc(-c2ccc(OCC3CCNCC3)cn2)cc1 [Compound 3] | inactive
c1ccc(-c2cc(OCC3CCNCC3)cnc2-c2ccccc2)cc1 [Compound 11] | inactive
C#Cc1ccc(-c2cc(OCC3CCNCC3)cnc2-c2ccc(C)cc2)cc1 [Compound 28] | activity loss
Cc1ccc(-c2ncc(OCC3CCNCC3)cc2-c2ccc(C(=O)O)cc2)cc1 [Compound 29] | completely lose inhibitory activities
Cc1ccc(-c2ncc(OCC3CCNCC3)cc2-c2ccc(CO)cc2)cc1 [Compound 30] | completely lose inhibitory activities
Cc1ccc(-c2ncc(OCC3CCNCC3)cc2-c2ccc(CN3CCCCC3)cc2)cc1 [Compound 36] | almost inactive
Cc1ccc(-c2ncc(O)cc2-c2ccc(C#N)cc2)cc1 [Compound 44] | Loss of activity
Cc1ccc(-c2ncc(OCc3ccccc3)cc2-c2ccc(C#N)cc2)cc1 [Compound 45] | Loss of activity

same assay, conditions: Ki ratio to compound 17

Compound | fold less active against LSD1 than compound 17
C#Cc1ccc(-c2cc(OCC3CCNCC3)cnc2-c2ccc(C)cc2)cc1 [Compound 28] | > 1,700 fold

system: normal fibroblast cells WI-38; test: Cell growth inhibition; type: cell-based; details: not given

Compound | activity against growth of normal cells in words
CN1CCN(C(=O)CN[C@H]2C[C@@H]2c2ccc(-c3ccc(F)nc3)cc2)CC1 [Compound S2] | inactive
